The values below come from paper PMC5431342, “Discovery of an enzyme and substrate selective inhibitor of ADAM10 using an exosite-binding glycosylated substrate” (Scientific Reports, 2016).

The subject of one assay is panel of metzincins. The assay can be described thus: Dose response against a panel of metzincins (MMP, meprin, ADAM assays). The format is biochemical. Particulars: reordered powder, dilutions starting at 100 µM. The protocol:
Powders for 4 compounds (CID # 3117694, 730037, 3153587, and 236330) were reordered from corresponding vendors and tested in 10-point, 1:3 serial dilutions starting at 100 µM in triplicate against ADAM10 and ADAM17 and a panel of metzincins. We examined the activity and selectivity of lead CID 3117694 using an ADAM10 and 17 HPLC-based assays using glycosylated substrate (Fig. 2A).
All assays followed the same general protocol. 5 µL of 2x enzyme solution (5 nM) in assay buffer (50 mM Tricine, 50 mM NaCl, 10 mM CaCl2, 0.05% Brij-35, pH 7.5) were added to solid bottom black 384 plates (Nunc, cat# 264705). Next, test compounds and pharmacological controls were added to corresponding wells using a 384 pin tool device (V&P Scientific, San Diego). […] Reactions were incubated at RT for 1 h, after which the fluorescence was measured using the Synergy H4 multimode microplate reader (Biotek Instruments) (λexcitation = 324 nm, λemission = 390 nm).
Both assays followed the same general protocol. […] After 30 min incubation at RT, the reactions were started by addition of 5 µL of 2x solutions of substrates (20 µM, mepin α Mca-YVADAPK-K(Dnp); and for meprin β Mca-EDEDED-K(Dnp). Reactions were incubated at RT for 1 h, after which the fluorescence was measured using the Synergy H4 multimode microplate reader (Biotek Instruments) (λexcitation = 324 nm, λemission = 390 nm).

The target of another assay is T1, ADAM10 (Homo sapiens, UniProt O14672).
T1 construct: purchased R&D Systems 936-AD
T1 sequence (O14672 214-748): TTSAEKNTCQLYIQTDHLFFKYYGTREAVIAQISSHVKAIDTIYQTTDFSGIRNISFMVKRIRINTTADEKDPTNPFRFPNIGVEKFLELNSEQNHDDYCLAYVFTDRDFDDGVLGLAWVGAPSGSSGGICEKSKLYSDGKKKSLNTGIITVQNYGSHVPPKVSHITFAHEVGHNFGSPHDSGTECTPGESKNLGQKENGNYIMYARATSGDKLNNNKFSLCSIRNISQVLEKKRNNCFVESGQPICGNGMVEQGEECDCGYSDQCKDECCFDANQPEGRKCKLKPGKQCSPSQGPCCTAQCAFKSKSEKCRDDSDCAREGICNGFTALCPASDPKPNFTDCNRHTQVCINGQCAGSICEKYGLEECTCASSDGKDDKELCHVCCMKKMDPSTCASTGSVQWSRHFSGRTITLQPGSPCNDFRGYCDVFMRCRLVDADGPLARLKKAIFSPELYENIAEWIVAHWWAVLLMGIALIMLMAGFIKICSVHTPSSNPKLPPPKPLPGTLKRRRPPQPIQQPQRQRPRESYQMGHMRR
The experiment in a line: ADAM10 non-glycosylated substrate assay. Conditions: non-glycosylated substrate. The assay is classed as biochemical. An excerpt:
Additionally, we synthesized a non-glycosylated version, E(Edans)-[…]-K(Dabcyl), to be used as a control in the follow-up studies.

The subject of assay [1] is shedding of CXCL16 in A549 cells. The assay can be described thus: CXCL16 shedding inhibition (ELISA). The format is cell-based, human. The procedure:
A549 cells were seeded in 12-well plates and grown to confluency in DMEM supplemented with 10% FBS and 1% P/S. Subsequently, cells were starved serum-free for 4 h, incubated for 1 h with GI 254023X or CID 3117694 (concentrations as indicated) or DMSO (vehicle, 0.1%) and afterwards stimulated with 10 ng/mL TNF and 10 ng/mL IFN for 24 h or left untreated in the presence of inhibitors or DMSO. Supernatants (500 µL) were harvested and centrifuged for 10 min at 16100 g and 4 °C. […] of CXCL16 were measured using the DuoSet human CXCL16 Elisa Kit (R&D systems, Wiesbaden, Germany). Samples were stored at −80 °C and diluted 2-fold after careful thawing. The standard ranged from 0 to 25,000 pg/mL with a detection limit of 391 pg/mL. For detection of soluble syndecan-4, conditioned media (200 µL) were 2-fold diluted in blotting buffer (0.15 M NaCl buffered to pH 4.5 with 50 mM sodium acetate, and with 0.1% Triton X-100), and applied to cationic polyvinylidene difluoride-based membranes (Hybond-N, Amersham Biosciences, Freiburg, Germany) under vacuum in a dot blot apparatus (Amersham Biosciences). The membranes were blocked for 1 h with PBS-T supplemented with 1% bovine serum albumin and 3% milk powder. Human syndecan-4 was detected by incubating membranes overnight at 4 °C with mouse anti-syndecan-4 mAb (0.6 µg/mL) followed by incubation with POD-coupled goat anti-mouse Ab (27 ng/mL in PBS, Jackson Immunoresearch). Chemiluminescence was recorded and quantified using the luminescent image analyzer LAS3000 substrate after addition of ECL advanced substrate (Amersham Biosciences).
For orientation: ELISA stands for enzyme-linked immunosorbent assay.

A further assay relates to A549 cells. The experiment in a line: Wound closure assay, A549. The assay is classed as cell-based. Particulars: A549, 10 µM. The procedure: For live-cell analysis of scratch-induced wound closure, 2.5 × 10^4 MDA-MB-231 and A549 cells per well were seeded in collagen G (40 µg/mL) (Biochrom AG, Germany) coated 96-well plates near confluence and allowed to grow overnight in standard medium (DMEM supplemented with 10% FBS and 1% P/S). At confluence, cells were pretreated 2 h with mitomycin (10 µg/mL) (Medac, Germany) to block cell proliferation and washed with standard media. Afterwards, cells were incubated in the presence of inhibitor at the indicated concentrations or DMSO (0.1% vehicle). Subsequently, a defined scratch (wound width between 642–767 µm) was performed in each well using the certified Essen Bioscience automated 96-wound maker^TM (Essen Biosciences, Hertfordshire, UK) for 96 well-plates. The medium was removed and 100 µL standard medium were added to the wells containing either inhibitor or DMSO. The closure of the wounded area was monitored using the IncuCyte ZOOM system by taking images of each well every 2 h over a period of 24 h. The reduction of wound width was determined over time using the IncuCyte ZOOM microscope software 2014A. Data were expressed as percentage of wound closure after 8 h.

As usually defined, the pIC50 is the negative decadic logarithm of the IC50, by convention in mol/L. A low value points to a high IC50.

SMILES strings stand for the structures. pIC50: −log10 of the molar value.

For `COc1cccc(C(=O)NNC(=O)C(=O)Nc2ccc(C)c(Cl)c2)c1` [CID 3117694], in the assay with panel of metzincins, the “inhibition of 11 tested metzincins (including ADAM10 and ADAM17)” value was “only ADAM10 was appreciably inhibited”. The compound also showed a negative-log IC50 (pIC50) at ADAM10 below 4.00. Besides, in assay [1] (TNF/IFN stimulation 24 h), the “inhibition of cytokine-inducible shedding of CXCL16” value is recorded as “inhibited cytokine-inducible”. The “inhibition of constitutive shedding of CXCL16” value in assay [1] (unstimulated) is “not the constitutive shedding”. In the assay with A549 cells, the “effect on wound healing” value was “significantly decreased wound healing”.
